# Reference: PMC12091848, “Structural Insights Into Galectin‐3 Recognition of a Selenoglycomimetic” (Chemmedchem, 2025)
# Target: T1, Galectin-3 (Gal-3) (Homo sapiens, UniProt P17931)
# T1 construct: gene LGALS3
# Assay: biochemical
# T1 sequence (P17931 114-250 limits assumed): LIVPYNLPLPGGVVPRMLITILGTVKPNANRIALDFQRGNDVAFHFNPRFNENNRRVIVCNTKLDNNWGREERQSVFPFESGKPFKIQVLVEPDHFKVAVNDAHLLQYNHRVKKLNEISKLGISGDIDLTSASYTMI
compound,measurement,value
"OC[C@H]1O[C@@H]([Se][C@@H]2O[C@H](CO)[C@H](O)[C@H](O)[C@H]2O)[C@H](O)[C@@H](O)[C@H]1O [SeDG, di(β‐D‐galactopyranosyl)selenide]",Kd,149 ± 30 µM
